Data reported in paper PMC9786170, “The Pharmacological Potential of Novel Melittin Variants from the Honeybee and Solitary Bees against Inflammation and Cancer” (Toxins, 2022).
“Also recorded” adds a separate entry of the source.

Columns and labels:
MDA-MB-231 cells = experiment: Proliferation assay (crystal violet) in MDA-MB-231 cells; format: cell-based, human; conditions: n = 2; for anti-proliferative activity, 72 h: MDA-MB-231, 25 µg/mL, crystal violet
Description: Figure 5 Anti-proliferative and apoptotic effect of melittin derivates on the triple-negative breast cancer cell line MDA-MB-231. (A) For the proliferation assay, cells were grown in low density and were treated after 24 h with melittin peptides at a concentration of 25 µg/mL for 72 h. Cells were stained with crystal violet solution. The amount of DNA-bound crystal violet was detected by absorbance measurements. (B) Melt3, 4, and Xac4, which are non-toxic to healthy cells, were further used to test effects on proliferation at 24 h (left) and 48 h (right) at different concentrations. (C) The effects on apoptosis were detected by flow cytometry after 24 h (left), 48 h (middle), and 72 h (right) of treatment. The number of apoptotic cells was determined by staining with propidium iodide (PI). Data are expressed as mean ± SEM. n = 2, * p ≤ 0.05 versus control. Sts, staurosporin 1 µM.
HMECs (2000 cells/well) were seeded into collagen-coated 96-well plates and grown for 24 h. Then, they were treated with melittin peptides. Treated cells were cultured for 72 h, whereas untreated control cells, directly after 24 h, were fixed with a methanol-ethanol (2:1) solution and washed with PBS before they were stained using a crystal violet solution (20% methanol). Similarly, at the end of incubation time, cells treated with melittin peptides were fixed, stained, and unbound crystal violet was removed by washing with distilled water. Finally, cells were left to air dry, and DNA-bound crystal violet was dissolved using an acetic acid solution (20%, Sigma-Aldrich, Steinheim, Germany). Absorbance was measured at 590 nm using a plate reader (Infinite F200Pro, Tecan, Männedorf, Switzerland). The proliferation percentage was calculated by normalizing to the untreated control (24 h) and compared to the DMSO control (0.03%) of 72 h incubation. Similarly, MDA-MB-231 cells (6000 cells/well) were seeded into 96-well plates, and their proliferation ability under treatment conditions was tested as described above.

RAW264.7 cells = experiment: NO inhibition assay (LPS-stimulated, Griess); format: cell-based, murine; conditions: RAW264.7, peptide 30 min, then 100 ng/mL LPS 24 h
Description: Figure 4 Influence of melittin derivates on inflammation-associated cell functions. (A,B) For the NO induction assay (A), RAW264.7 cells were treated with melittin peptides in the indicated concentrations for 24 h. For the NO inhibition assay (B), RAW264.7 cells were pretreated with melittin peptides in the indicated concentrations for 30 min and then stimulated with 100 ng/mL LPS for 24 h. NO was detected in the supernatant using the Griess method. […] THP-1 cell adhesion under static conditions. HUVECs were grown to confluence, preincubated with bee venoms for 30 min, and activated with TNF (10 ng/mL) for 24 h. For the leukocyte adhesion assay, untreated THP-1 cells were stained with CellTracker Green and were allowed to adhere to the treated HUVECs for 5 min. The adhesion of leukocytes onto Ecs was quantified by fluorescence measurements for all cell adhesion experiments. Data are expressed as means ± SEM, (A,B) n = 3, (C) n = 2. * p ≤ 0.05 vs. TNF (positive) control.
2 × 10^4 RAW264.7 macrophages/well were plated in a 96-well plate and cultured for 24 h at 37 °C. To investigate if the melittin peptides induce nitrogen oxide (NO) synthesis, the melittin peptides, control (DMSO), and positive control (100 ng/mL lipopolysaccharide (LPS)) were added. To evaluate the effect of melittin peptides on inhibiting NO synthesis, the cells were pre-incubated with peptides or control (DMSO) for 30 min before 100 ng/mL LPS were added. After 24 h supernatants were collected and stored at −80 °C.
NO was determined with the Griess method. Briefly, for the standard curve, different concentrations of sodium nitrite (0–50 µM) were prepared in the medium. A total of 80 µL cell supernatant or standard sample were added to a 96-well microplate and subsequently, 20 µL sulfanilamide solution (120 mg sulfanilamide in 30 mL 1 N hydrochloric acid) and 20 µL naphthylenediamine solution (180 mg N-(1-naphthyl)ethylenediamine dihydrochloride in 30 mL water) were added. After 15 min of incubation, the absorbance (540 nm) was measured with the EnSpire Plate Reader (PerkinElmer, Waltham, MA, USA). For the induction assay, the NO levels of the melittin peptides-treated samples were related to the DMSO-treated sample. For the inhibition assay, the NO levels of the melittin peptides-treated cells were correlated with the LPS-treated samples.

HEK293T cells = experiment: Ca2+ induction assay (Fluo-8); format: cell-based, human; conditions: Fluo-8, 0.25, 2.5, 25 µg/mL, partly already at 2.5 µg/mL, n = 4
Description: Figure 2 Melittin derivates influence cellular Ca^2+ and IP1 levels. (A) For the Ca^2+ induction assay, Fluo-8 pretreated HEK293-T cells were incubated with melittin derivates in the indicated concentrations and the fluorescence was detected. (B) For the Ca^2+ inhibition assay, Fluo-8 pretreated HEK293-T cells were incubated with peptides in the indicated concentrations for 30 min, stimulated with 5 µM ionomycin, and the fluorescence was detected. (C) IP3 has a short lifetime and is rapidly degraded to IP1; therefore, IP1 was determined. For the IP1/IP3 induction assay (left panel), HEK293T cells were incubated with melittin peptides in the indicated concentration for 2 h, a detection reagent was added, and the fluorescence resonance energy transfer signal was detected. For the IP1/IP3 inhibition assay (right panel), HEK293T cells were incubated with melittin peptides in the indicated concentration for 30 min and stimulated with 20 µM ionomycin for 1.5 h. After the addition of the detection reagent, the fluorescence resonance energy transfer signal was detected. Data are expressed as mean ± SEM. (A, B, C (left)) n = 4, (C (right)) n = 3. * p ≤ 0.05 versus control.
For analysis, 5 × 10^4 HEK293 cells or 2 × 10^4 MDA-MB-231 cells were seeded in a 96-well poly-D-lysine plate, incubated at 37 °C for 24 h, and treated with 4 µM Fluo-8-AM in HBSS for 1 h at 37 °C. After 1 h, the Fluo-8/HBSS was replaced by 100 µL HBSS. Five images per second were taken using an ImageXpress Micro Confocal High Content Imaging System (Molecular Device, San Jose, CA, USA). Melittin peptides (0.25, 2.5, and 25 µg/mL), DMSO (negative control), or 5 µM ionomycin (Sigma Aldrich; Taufkirchen, Germany) (positive control) were added to the cells. For the next 20 s, an image was obtained every second. For the inhibition assay, the peptide-treated samples (30 min) were treated with 5 µM ionomycin and for the next 20 s, an image was obtained every second. The data were analyzed with the MetaXpress Software Version 6 (Molecular Devices, San Jose, CA, USA). A threshold of fluorescence intensity was defined using cells before treatment, and all cells with a fluorescence signal above the threshold level were counted. For the induction assay, the number of cells above the threshold in the toxin-treated samples were related to the cells in the DMSO-treated sample. For the inhibition assay, the number of cells above the threshold in the melittin-treated samples were related to the cells in the ionomycin-treated sample.

Substance | anti-proliferative activity, 72 h (MDA-MB-231 cells) | proliferation at 24 h and 48 h, concentration range (MDA-MB-231 cells; MDA-MB-231, 24 h and 48 h, different concentrations, Melt4 effect at 10 and 25 µg/mL) | inhibition of LPS-induced NO synthesis (RAW264.7 cells; n = 3) | induction of Ca2+ release (HEK293T cells) | inhibition of LPS-induced NO synthesis (RAW264.7 cells; n = 3, listed as Melittin) | inhibition of LPS-induced NO synthesis (RAW264.7 cells; n = 3, listed as melittin)
xylopin [Xac4] | exhibited anti-proliferative activity; also recorded: anti-proliferative effects on breast cancer cells | trend of decreased proliferation | prevented LPS-induced NO synthesis in a concentration-dependent manner; also recorded: reducing the inflammation-associated interaction of endothelial cells with leukocytes and NO synthesis | induce Ca^2+ release |  | 
melittin [Melt, reference compound] | exhibited anti-proliferative activity |  |  | induced a significant release of Ca^2+; also recorded: induce Ca^2+ release | prevent the LPS-induced NO release | prevented LPS-induced NO synthesis in a concentration-dependent manner
